Laboratory results as given in ChEMBL document CHEMBL3585343, “Fragment-Based Discovery of Low-Micromolar ATAD2 Bromodomain Inhibitors” (J Med Chem, 2015).
pIC50: −log10 of the molar value. Converted amounts (≈) assume the structure as drawn.

Experiments:
[1] = target: Bromodomain-containing protein 4 (Homo sapiens, UniProt O60885, Y390A)
[2] = Distribution coefficient, log D of the compound at pH 7.4 by chromatographic method; assay type: physicochemical
[3] = target: Bromodomain testis-specific protein (Homo sapiens, UniProt Q58F21, Y309A); experiment: Binding affinity to 6-His-FLAG-Tev-BRDT BD1 (1 to 397) (unknown origin) harboring BD2 Y309A mutant
[4] = target: Bromodomain-containing protein 3 (Homo sapiens, UniProt Q15059, Y37A); experiment: Binding affinity to BRD3 6-His-Thr BRD3 (1 to 435) BD2 (unknown origin) harboring BD1 Y37A mutant
Sequence of Bromodomain-containing protein 3 (Homo sapiens, UniProt Q15059, Y37A) (Q15059 whole entry, looked up, stated change not applied): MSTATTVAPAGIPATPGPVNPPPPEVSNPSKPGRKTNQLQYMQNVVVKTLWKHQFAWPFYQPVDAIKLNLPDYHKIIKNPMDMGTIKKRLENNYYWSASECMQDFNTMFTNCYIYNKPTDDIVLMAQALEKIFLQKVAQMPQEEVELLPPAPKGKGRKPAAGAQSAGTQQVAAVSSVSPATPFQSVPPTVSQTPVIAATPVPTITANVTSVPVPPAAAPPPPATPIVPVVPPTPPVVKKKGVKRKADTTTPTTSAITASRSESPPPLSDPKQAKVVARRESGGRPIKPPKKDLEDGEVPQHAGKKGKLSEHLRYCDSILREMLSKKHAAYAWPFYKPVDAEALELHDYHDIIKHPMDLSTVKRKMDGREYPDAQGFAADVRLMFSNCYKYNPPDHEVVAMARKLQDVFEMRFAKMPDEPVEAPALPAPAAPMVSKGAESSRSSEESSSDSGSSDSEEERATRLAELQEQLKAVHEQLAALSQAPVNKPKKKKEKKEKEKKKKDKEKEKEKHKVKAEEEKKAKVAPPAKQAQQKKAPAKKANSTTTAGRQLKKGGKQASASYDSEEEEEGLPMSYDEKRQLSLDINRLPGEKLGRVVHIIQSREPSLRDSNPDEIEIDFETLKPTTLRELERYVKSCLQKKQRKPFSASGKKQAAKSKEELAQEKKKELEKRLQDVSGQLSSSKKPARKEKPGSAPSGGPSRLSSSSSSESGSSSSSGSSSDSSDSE

[5] = Solubility of the compound in phosphate buffered saline at pH 7.4 after 1 hr by CLND method; assay type: physicochemical
[6] = target: Bromodomain-containing protein 2 (Homo sapiens, UniProt P25440, Y386A)
Sequence of Bromodomain-containing protein 2 (Homo sapiens, UniProt P25440, Y386A) (P25440 whole entry Y386A): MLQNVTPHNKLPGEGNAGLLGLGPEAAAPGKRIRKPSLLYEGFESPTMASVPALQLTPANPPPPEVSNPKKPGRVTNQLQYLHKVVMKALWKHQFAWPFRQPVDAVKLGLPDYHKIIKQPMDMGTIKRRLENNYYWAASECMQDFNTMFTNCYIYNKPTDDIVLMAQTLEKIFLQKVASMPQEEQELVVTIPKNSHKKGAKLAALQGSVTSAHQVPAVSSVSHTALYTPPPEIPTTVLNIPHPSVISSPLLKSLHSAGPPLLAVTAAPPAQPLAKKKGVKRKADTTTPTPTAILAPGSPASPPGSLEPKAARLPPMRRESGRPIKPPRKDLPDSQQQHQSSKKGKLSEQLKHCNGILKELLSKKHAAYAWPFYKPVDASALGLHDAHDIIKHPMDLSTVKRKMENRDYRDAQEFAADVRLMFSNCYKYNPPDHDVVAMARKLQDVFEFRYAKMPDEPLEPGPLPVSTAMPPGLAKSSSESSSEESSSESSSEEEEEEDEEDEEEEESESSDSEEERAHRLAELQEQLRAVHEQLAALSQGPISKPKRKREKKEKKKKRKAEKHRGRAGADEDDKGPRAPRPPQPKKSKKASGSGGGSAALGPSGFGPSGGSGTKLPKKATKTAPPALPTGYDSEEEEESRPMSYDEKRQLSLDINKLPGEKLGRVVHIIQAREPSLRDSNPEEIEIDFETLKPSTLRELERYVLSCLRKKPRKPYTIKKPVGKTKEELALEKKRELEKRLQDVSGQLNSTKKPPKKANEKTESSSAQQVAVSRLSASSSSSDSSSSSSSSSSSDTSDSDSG

[7] = target: Bromodomain-containing protein 3 (Homo sapiens, UniProt Q15059, Y348A); experiment: Binding affinity to 6-His-Thr BRD3 (1 to 435) BD1 (unknown origin) harboring BD2 Y348A mutant
Sequence of Bromodomain-containing protein 3 (Homo sapiens, UniProt Q15059, Y348A) (Q15059 2-726 Y348A limits assumed): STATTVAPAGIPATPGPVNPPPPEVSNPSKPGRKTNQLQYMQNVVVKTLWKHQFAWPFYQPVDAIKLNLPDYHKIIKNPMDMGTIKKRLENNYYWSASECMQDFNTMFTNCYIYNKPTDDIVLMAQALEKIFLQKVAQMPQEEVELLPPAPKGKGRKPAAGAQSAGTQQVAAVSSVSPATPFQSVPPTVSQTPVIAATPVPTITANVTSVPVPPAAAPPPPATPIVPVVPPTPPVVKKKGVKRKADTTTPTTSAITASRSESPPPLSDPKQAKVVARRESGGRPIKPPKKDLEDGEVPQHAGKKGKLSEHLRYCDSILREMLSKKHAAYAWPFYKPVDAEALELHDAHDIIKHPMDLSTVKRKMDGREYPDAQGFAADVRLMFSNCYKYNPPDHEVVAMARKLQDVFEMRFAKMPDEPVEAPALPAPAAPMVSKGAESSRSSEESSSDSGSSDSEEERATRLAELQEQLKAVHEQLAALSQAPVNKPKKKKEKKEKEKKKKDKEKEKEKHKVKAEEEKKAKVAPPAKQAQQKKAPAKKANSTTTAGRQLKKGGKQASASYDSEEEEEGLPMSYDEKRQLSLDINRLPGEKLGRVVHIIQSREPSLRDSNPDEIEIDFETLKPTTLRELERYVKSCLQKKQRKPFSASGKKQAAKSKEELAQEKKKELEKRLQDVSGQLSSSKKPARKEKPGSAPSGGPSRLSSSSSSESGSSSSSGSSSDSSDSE

[8] = target: Bromodomain-containing protein 4 (Homo sapiens, UniProt O60885, Y97A)
[9] = target: Bromodomain-containing protein 2 (Homo sapiens, UniProt P25440, Y113A)
Sequence of Bromodomain-containing protein 2 (Homo sapiens, UniProt P25440, Y113A) (P25440 whole entry Y113A): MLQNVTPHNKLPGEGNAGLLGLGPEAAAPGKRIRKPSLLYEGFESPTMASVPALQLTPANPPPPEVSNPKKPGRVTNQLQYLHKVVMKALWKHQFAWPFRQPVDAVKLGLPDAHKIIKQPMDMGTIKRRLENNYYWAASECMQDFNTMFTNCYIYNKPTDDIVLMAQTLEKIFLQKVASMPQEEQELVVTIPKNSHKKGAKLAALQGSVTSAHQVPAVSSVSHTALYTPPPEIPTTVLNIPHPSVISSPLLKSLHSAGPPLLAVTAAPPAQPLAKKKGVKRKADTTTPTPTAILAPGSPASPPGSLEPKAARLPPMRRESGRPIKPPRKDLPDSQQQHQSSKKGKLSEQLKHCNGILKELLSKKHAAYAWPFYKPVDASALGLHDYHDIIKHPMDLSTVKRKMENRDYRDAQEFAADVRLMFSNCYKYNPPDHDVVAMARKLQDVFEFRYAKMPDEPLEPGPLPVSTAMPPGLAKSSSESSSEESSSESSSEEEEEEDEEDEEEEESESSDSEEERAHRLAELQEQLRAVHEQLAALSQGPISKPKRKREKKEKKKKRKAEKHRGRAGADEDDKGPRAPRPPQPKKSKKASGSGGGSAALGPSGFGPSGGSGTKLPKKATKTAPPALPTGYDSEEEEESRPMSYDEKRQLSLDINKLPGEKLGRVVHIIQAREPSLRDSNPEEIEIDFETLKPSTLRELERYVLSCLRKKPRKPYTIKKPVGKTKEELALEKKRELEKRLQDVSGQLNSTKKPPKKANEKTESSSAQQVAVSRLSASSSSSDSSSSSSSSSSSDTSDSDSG

[10] = Lipophilicity, log P of the compound; assay type: physicochemical; conditions: octanol/water
[11] = Permeability across phosphatidyl choline membrane at pH 7.4 after 3 hrs by HPLC with UV detection method; assay type: ADME; conditions: not told, read-out: permeability
[12] = target: Bromodomain testis-specific protein (Homo sapiens, UniProt Q58F21, Y66A); experiment: Binding affinity to 6-His-FLAG-Tev-BRDT BD2 (1 to 397) (unknown origin) harboring BD1 Y66A mutant

Row | pIC50 [1] | chromatographic logD [2] | SMILES | further results
1 | 6.20 | 1.3 | Cc1cc2c(-c3cccc(O)c3)cnc(NC3CCNCC3)c2[nH]c1=O | 
2 | < 4.30 |  | CCCNc1cccc2cc(C)c(=O)[nH]c12 | 
3 | 5.90 | 1.1 | COc1cncc(-c2cnc(NC3CCNCC3)c3[nH]c(=O)c(C)cc23)c1 | pIC50 [3]: 5.20; pIC50 [4]: 4.70; solubility kinetic at 1 h [5]: 250 µM (≈ 91.4 µg/mL); pIC50 [6]: 5.40; pIC50 [7]: 5.20; pIC50 [8]: 4.80; pIC50 [9]: 4.70; logP [10]: 2.7; Papp at 3 h [11]: < 0.3 ×10⁻⁶ cm/s; pIC50 [12]: 4.60
4 | 6.00 | 1.4 | CC(=O)N1CCc2cc(-c3cnc(NC4CCNCC4)c4[nH]c(=O)c(C)cc34)ccc21 | 
5 |  | 0.3 | Cc1cc2c(-c3cncc(COC(N)=O)c3)cnc(NC3CCNCC3)c2[nH]c1=O | 
6 | 5.70 | 0.8 | Cc1cc2c(-c3cccnc3)cnc(NC3CCNCC3)c2[nH]c1=O | 
7 | 3.80 |  | Cc1cc2ccnc(NCC(C)(C)CN(C)C)c2[nH]c1=O | 
8 | 4.40 |  | Cc1cc2cccc(NCCO)c2[nH]c1=O | 
9 | < 4.30 |  | Cc1cc2cccc(NCCC(=O)O)c2[nH]c1=O | 
10 | 6.10 | 0 | Cc1cc2c(-c3cn[nH]c3)cnc(NC3CCNCC3)c2[nH]c1=O | 
11 | 5.70 | 0 | Cc1cc2c(-c3cncc(N)c3)cnc(NC3CCNCC3)c2[nH]c1=O | 
12 | 5.90 | 0.4 | Cc1cc2c(-c3cc[nH]n3)cnc(NC3CCNCC3)c2[nH]c1=O | 
13 | 4.30 |  | Cc1cc2cccc(NCc3ncc[nH]3)c2[nH]c1=O | 
14 | 5.50 | 1 | Cc1cc2c(-c3ccncc3)cnc(NC3CCNCC3)c2[nH]c1=O | 
15 | 5.90 | 1.6 | COc1ccc(-c2cnc(NC3CCNCC3)c3[nH]c(=O)c(C)cc23)cn1 | 
16 | 4.80 | 0.3 | Cc1cc2c(-c3cncnc3)cnc(NC3CCNCC3)c2[nH]c1=O | 
17 | 5.00 |  | Cc1cc2cccc(NCCCN(C)C)c2[nH]c1=O | 
18 |  | 0.5 | Cc1cc2ccnc(NC3CCN(C)CC3)c2[nH]c1=O | 
19 | 4.90 |  | Cc1cc2ccnc(NCCC3CCNCC3)c2[nH]c1=O | 
20 | 6.90 | 1.2 | Cc1cc2c(-c3cccc4[nH]ncc34)cnc(NC3CCNCC3)c2[nH]c1=O | 

Row | pIC50 [1] | chromatographic logD [2] | SMILES | further results
21 | 5.20 | 1.7 | Cc1cc2c(-c3cncc(Cl)c3)cnc(NC3CCNCC3)c2[nH]c1=O | 
22 | 5.20 | 0.8 | Cc1ncccc1-c1cnc(NC2CCNCC2)c2[nH]c(=O)c(C)cc12 | 
23 | < 4.30 |  | COCCNc1cccc2cc(C)c(=O)[nH]c12 | 
24 | 5.30 |  | Cc1cc2cccc(NCCCO)c2[nH]c1=O | 
25 | 5.30 | 1 | Cc1cc2c(-c3ccccn3)cnc(NC3CCNCC3)c2[nH]c1=O | 
26 | 4.60 |  | Cc1cc2ccnc(NCCC3CCCNC3)c2[nH]c1=O (configuration not stated) | 
27 |  | 1.4 | COCCN1CCC(Nc2nccc3cc(C)c(=O)[nH]c23)CC1 | 
28 | 5.10 | 1.4 | Cc1cncc(-c2cnc(NC3CCNCC3)c3[nH]c(=O)c(C)cc23)c1C | 
29 |  | 2.8 | Cc1cc2ccnc(NC3CCN(C4CC4)CC3)c2[nH]c1=O | 
30 | 5.50 | 0.9 | Cc1ccncc1-c1cnc(NC2CCNCC2)c2[nH]c(=O)c(C)cc12 | 
31 | 4.80 |  | Cc1cc2ccnc(N[C@@H]3CCCNC3)c2[nH]c1=O | 
32 |  | 1.2 | Cc1cncc(-c2cnc(NC3CCNCC3)c3[nH]c(=O)c(C)cc23)c1 | pIC50 [3]: 5.10; pIC50 [4]: 4.70; solubility kinetic at 1 h [5]: ≥ 207 µM; pIC50 [6]: 5.20; pIC50 [7]: 5.10; pIC50 [9]: 4.70; logP [10]: 2.4; Papp at 3 h [11]: < 0.3 ×10⁻⁶ cm/s; pIC50 [12]: 4.50
33 | 5.40 | 1.4 | COCCCN1CCC(Nc2nccc3cc(C)c(=O)[nH]c23)CC1 | 
34 |  | 0.6 | Cc1cc2ccnc(NC3CCNCC3)c2[nH]c1=O | 
35 | 6.10 | 2.5 | Cc1cc2c(-c3ccccc3)cnc(NC3CCNCC3)c2[nH]c1=O | 
36 | 6.10 | 0.2 | Cc1cc2c(-c3cncc(NS(C)(=O)=O)c3)cnc(NC3CCNCC3)c2[nH]c1=O | 
37 | 6.00 | 1.1 | Cc1ccc(-c2cnc(NC3CCNCC3)c3[nH]c(=O)c(C)cc23)cn1 | 
38 | 4.40 |  | Cc1cc2ccccc2[nH]c1=O | 
39 | 5.40 | -0.2 | Cc1cc2c(-c3cncc(C(N)=O)c3)cnc(NC3CCNCC3)c2[nH]c1=O | 
40 | 4.60 |  | Cc1cc2cccc(NCCN(C)C)c2[nH]c1=O | 

Row | SMILES | pIC50 [1] | chromatographic logD [2] | further results
41 | Cc1cc2ccnc(N[C@@H]3C[C@H]4CC[C@@H](C3)N4C)c2[nH]c1=O |  | 1 | 
42 | Cc1cc2ccnc(N[C@H]3C[C@H]4CC[C@@H](C3)N4C)c2[nH]c1=O |  | 1.2 | 
